Source: patent publication US9233979B2, “Compounds that are ERK inhibitors” (Merck Sharp & Dohme Corp., priority 2012, dated 2016)

Biological target: phosphorylated active hERK2 enzyme (Homo sapiens (Human), UniProt P28482)
Assay: Active Human ERK2 (hERK2) Activity Assay (IMAP-FP)
Type: biochemical
Conditions: Table 6, 0.5 nM hERK2, 30 μM ATP, 10 point titration, read-out: AERK2 IC50
Summary of the method: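 IMAP detection beads in buffer with 24 mM NaCl stopped the reaction, and fluorescence polarization was read after 60 min binding.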

phosphorylated active hERK2 enzyme, sequence (P28482 whole entry): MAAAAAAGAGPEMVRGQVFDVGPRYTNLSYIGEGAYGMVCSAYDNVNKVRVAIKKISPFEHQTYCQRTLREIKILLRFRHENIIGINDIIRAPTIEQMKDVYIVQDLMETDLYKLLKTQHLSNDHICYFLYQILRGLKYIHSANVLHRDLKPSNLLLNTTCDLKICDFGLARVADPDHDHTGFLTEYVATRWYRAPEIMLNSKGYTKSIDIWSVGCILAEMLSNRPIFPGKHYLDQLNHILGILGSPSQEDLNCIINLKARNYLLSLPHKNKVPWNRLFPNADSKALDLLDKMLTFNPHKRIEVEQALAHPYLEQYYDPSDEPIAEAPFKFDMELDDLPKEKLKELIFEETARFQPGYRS

SMILES	IC50 [nM]
CNc1n[nH]c2cc(NC(=O)N[C@H](c3ccccc3)[C@H]3CCCO3)ncc12 [Example 147, 1-(3-(methylamino)-1H-pyrazolo[4,3-c]pyridin-6-yl)-3-((R)-phenyl((R)-tetrahydrofuran-2-yl)methyl)urea]	246
CCNc1n[nH]c2cc(NC(=O)N[C@H](c3ccccc3)[C@H]3CCCO3)ncc12 [Example 150, 1-[3-(ethylamino)-1H-pyrazolo[4,3-c]pyridin-6-yl]-3-{(R)-phenyl[(2R)-tetrahydrofuran-2-yl]methyl}urea]	359
CCNc1n[nH]c2cc(NC(=O)N[C@H](c3ccccc3)[C@@H]3CCCO3)ncc12 [Example 151, 1-[3-(ethylamino)-1H-pyrazolo[4,3-c]pyridin-6-yl]-3-{(R)-phenyl[(2S)-tetrahydrofuran-2-yl]methyl}urea]	315
Nc1n[nH]c2cc(NC(=O)N[C@H](c3ccccc3)[C@H]3CCCO3)ncc12 [Example 154, 1-(3-amino-1H-pyrazolo[4,3-c]pyridin-6-yl)-3-{(R)-phenyl[(2R)-tetrahydrofuran-2-yl]methyl}urea]	435
Nc1n[nH]c2cc(NC(=O)N[C@H](c3ccccc3)[C@@H]3CCCO3)ncc12 [Example 155, 1-(3-amino-1H-pyrazolo[4,3-c]pyridin-6-yl)-3-{(R)-phenyl[(2S)-tetrahydrofuran-2-yl]methyl}urea]	495
COC[C@@H](NC(=O)Nc1cc2[nH]nc(N(CC3CCC3)CC3CCC3)c2cn1)c1ccccc1 [Example 157, 1-{3-[bis(cyclobutyl-methyl)amino]-1H-pyrazolo[4,3-c]pyridin-6-yl}-3-[(1S)-2-methoxy-1-phenylethyl]urea]	93.2
C[C@@H](NC(=O)Nc1cc2[nH]nc(N(CC3CC3)CC3CC3)c2cn1)c1ccccc1 [Example 160, 1-{3-[bis(cyclopropyl-methyl)amino]-1H-pyrazolo[4,3-c]-pyridin-6-yl}-3-[(1R)-1-phenylethyl]urea]	279
C[C@@H](NC(=O)Nc1cc2[nH]nc(NC3CCNCC3)c2cn1)c1ccccc1 [Example 162, 1-[(1R)-1-phenylethyl]-3-[3-(piperidin-4-ylamino)-1H-pyrazolo[4,3-c]-pyridin-6-yl]urea]	165
C[C@@H](NC(=O)Nc1cc2[nH]nc(NC3CCCNC3)c2cn1)c1ccccc1 (stereo partly drawn) [Example 164, 1-[(1R)-1-phenylethyl]-3-[3-(piperidin-3-ylamino)-1H-pyrazolo[4,3-c]-pyridin-6-yl]urea]	30.2
C[C@@H](NC(=O)Nc1cc2[nH]nc(NCC3CCNCC3)c2cn1)c1ccccc1 [Example 165, 1-[(1R)-1-phenylethyl]-3-{3-[(piperidin-4-ylmethyl)amino]-1H-pyrazolo[4,3-c]pyridin-6-yl}urea]	50.2
C[C@@H](NC(=O)Nc1cc2[nH]nc(NCC3CCCOC3)c2cn1)c1ccccc1 (stereo partly drawn) [Example 167, 1-[(1R)-1-phenylethyl]-3-{3-[(tetrahydro-2H-pyran-3-yl-methyl)amino]-1H-pyrazolo[4,3-c]pyridin-6-yl}urea]	4.2
C[C@@H](NC(=O)Nc1cc2[nH]nc(NC3CNC3)c2cn1)c1ccccc1 [Example 168, 1-[3-(azetidin-3-ylamino)-1H-pyrazolo[4,3-c]-pyridin-6-yl]-3-[(1R)-1-phenylethyl]urea]	31.7
C[C@@H](NC(=O)Nc1cc2[nH]nc(NC3CC(N(C)C)C3)c2cn1)c1ccccc1 (stereo partly drawn) [Example 169, 1-(3-{[3-(dimethylamino)-cyclobutyl]amino}-1H-pyrazolo[4,3-c]pyridin-6-yl)-3-[(1R)-1-phenylethyl]urea]	50.2
COC1CC(CNc2n[nH]c3cc(NC(=O)N[C@H](C)c4ccccc4)ncc23)C1 (stereo partly drawn) [Example 170, 1-(3-{[(3-methoxy-cyclobutyl)methyl]amino}-1H-pyrazolo[4,3-c]-pyridin-6-yl)-3-[(1R)-1-phenylethyl]urea]	2.7
CC(Nc1n[nH]c2cc(NC(=O)N[C@H](C)c3ccccc3)ncc12)C1CCOCC1 (stereo partly drawn) [Example 171, 1-[(1R)-1-phenylethyl]-3-(3-{[1-(tetrahydro-2H-pyran-4-yl)-ethyl]amino}-1H-pyrazolo[4,3-c]-pyridin-6-yl)urea]	4.1
C[C@@H](NC(=O)Nc1cc2[nH]nc(NC3CCC(N(C)C)CC3)c2cn1)c1ccccc1 (stereo partly drawn) [Example 172, 1-(3-{[4-(dimethylamino)-cyclohexyl]amino}-1H-pyrazolo[4,3-c]pyridin-6-yl)-3-[(1R)-1-phenylethyl]urea]	31.2
CC1=NOC(CNc2n[nH]c3cc(NC(=O)N[C@H](C)c4ccccc4)ncc23)C1 (stereo partly drawn) [Example 173, 1-(3-{[(3-methyl-4,5-dihydro-isoxazol-5-yl)-methyl]amino}-1H-pyrazolo[4,3-c]-pyridin-6-yl)-3-[(1R)-1-phenylethyl]urea]	5.8
C[C@@H](NC(=O)Nc1cc2[nH]nc(NC3CCCOC3)c2cn1)c1ccccc1 (stereo partly drawn) [Example 174, 1-[(1R)-1-phenylethyl]-3-[3-(tetrahydro-2H-pyran-3-ylamino)-1H-pyrazolo[4,3-c]pyridin-6-yl]urea]	4.4
CC(CN1CCOCC1)Nc1n[nH]c2cc(NC(=O)N[C@H](C)c3ccccc3)ncc12 (stereo partly drawn) [Example 175, 1-{3-[(1-methyl-2-morpholin-4-ylethyl)amino]-1H-pyrazolo[4,3-c]pyridin-6-yl}-3-[(1R)-1-phenylethyl]urea]	33.8
CC(CC1CCCCN1)Nc1n[nH]c2cc(NC(=O)N[C@H](C)c3ccccc3)ncc12 (stereo partly drawn) [Example 176, 1-{3-[(1-methyl-2-piperidin-2-ylethyl)amino]-1H-pyrazolo[4,3-c]pyridin-6-yl}-3-[(1R)-1-phenylethyl]urea]	38.2
C[C@@H](NC(=O)Nc1cc2[nH]nc(NCC3CC(C(C)(C)O)C3)c2cn1)c1ccccc1 (stereo partly drawn) [Example 177, 1-[3-({[3-(1-hydroxy-1-methyl-ethyl)cyclobutyl]-methyl}amino)-1H-pyrazolo[4,3-c]pyridin-6-yl]-3-[(1R)-1-phenylethyl]urea]	12
C[C@@H](NC(=O)Nc1cc2[nH]nc(NCc3ccccc3)c2cn1)c1ccccc1 [Example 178, 1-[3-(benzyl-amino)-1H-pyrazolo[4,3-c]-pyridin-6-yl]-3-1-[(1R)-1-phenylethyl]urea]	4.6
C=C(C)C1CC(CNc2n[nH]c3cc(NC(=O)N[C@H](C)c4ccccc4)ncc23)C1 (stereo partly drawn) [Example 180, 1-[3-({[3-(1-methylethenyl)-cyclobutyl]methyl}amino)-1H-pyrazolo[4,3-c]-pyridin-6-yl]-3-[(1R)-1-phenylethyl]urea]	17.9
C[C@@H](NC(=O)Nc1cc2[nH]nc(NC(=O)C3CCOCC3)c2cn1)c1ccccc1 [Example 181, N-[6-({[(1R)-1-phenylethyl]-carbamoyl}amino)-1H-pyrazolo[4,3-c]pyridin-3-yl]-tetrahydro-2H-pyran-4-carboxamide]	4.3

These reach a lower IC50. Values come first.

IC50 [nM]	SMILES
0.8	CCNc1n[nH]c2cc(NC(=O)N[C@@H](c3ccccc3)[C@@H]3CCCO3)ncc12 [Example 148, 1-[3-(ethylamino)-1H-pyrazolo[4,3-c]pyridin-6-yl]-3-{(S)-phenyl[(2S)-tetrahydrofuran-2-yl]methyl}urea]
0.6	CCNc1n[nH]c2cc(NC(=O)N[C@@H](c3ccccc3)[C@H]3CCCO3)ncc12 [Example 149, 1-[3-(ethylamino)-1H-pyrazolo[4,3-c]pyridin-6-yl]-3-{(S)-phenyl[(2R)-tetrahydrofuran-2-yl]methyl}urea]
0.9	Nc1n[nH]c2cc(NC(=O)N[C@@H](c3ccccc3)[C@@H]3CCCO3)ncc12 [Example 152, 1-(3-amino-1H-pyrazolo[4,3-c]pyridin-6-yl)-3-{(S)-phenyl[(2S)-tetrahydrofuran-2-yl]methyl}urea]
0.7	Nc1n[nH]c2cc(NC(=O)N[C@@H](c3ccccc3)[C@H]3CCCO3)ncc12 [Example 153, 1-(3-amino-1H-pyrazolo[4,3-c]pyridin-6-yl)-3-{(S)-phenyl[(2R)-tetrahydrofuran-2-yl]methyl}urea]
0.7	COC[C@@H](NC(=O)Nc1cc2[nH]nc(NCC3CCC3)c2cn1)c1ccccc1 [Example 156, 1-{3-[(cyclobutyl-methyl)amino]-1H-pyrazolo[4,3-c]-pyridin-6-yl}-3-[(1S)-2-methoxy-1-phenylethyl]urea]
1.1	COC[C@@H](NC(=O)Nc1cc2[nH]nc(NC3CCOC3)c2cn1)c1ccccc1 (stereo partly drawn) [Example 158, 1-[(1S)-2-methoxy-1-phenylethyl]-3-[3-(tetrahydro-furan-3-ylamino)-1H-pyrazolo[4,3-c]pyridin-6-yl]urea]
1.8	C[C@@H](NC(=O)Nc1cc2[nH]nc(NCC3CC3)c2cn1)c1ccccc1 [Example 159, 1-{3-[(cyclopropyl-methyl)amino]-1H-pyrazolo[4,3-c]-pyridin-6-yl}-3-[(1R)-1-phenylethyl]urea]
2.3	C[C@@H](NC(=O)Nc1cc2[nH]nc(NC3CCOC3)c2cn1)c1ccccc1 (stereo partly drawn) [Example 161, 1-[(1R)-1-phenylethyl]-3-[3-(tetrahydrofuran-3-ylamino)-1H-pyrazolo[4,3-c]pyridin-6-yl]urea]
0.6	CC(C)C(=O)Nc1n[nH]c2cc(NC(=O)N[C@H](C)c3ccccc3)ncc12 [Example 163, 2-methyl-N-[6-({[(1R)-1-phenylethyl]-carbamoyl}amino)-1H-pypyrazolo[4,3-c]-pyridin-3-yl]propanamide]
1.7	C[C@@H](NC(=O)Nc1cc2[nH]nc(NCC3CCOCC3)c2cn1)c1ccccc1 [Example 166, 1-[(1R)-1-phenylethyl]-3-{3-[(tetrahydro-2H-pyran-4-yl-methyl)amino]-1H-pyrazolo[4,3-c]pyridin-6-yl}urea]
1	C[C@@H](NC(=O)Nc1cc2[nH]nc(NCc3ccncc3)c2cn1)c1ccccc1 [Example 179, 1-[(1R)-1-phenylethyl]-3-{3-[(pyridin-4-yl-methyl)amino]-1H-pyrazolo[4,3-c]-pyridin-6-yl}urea]
